From patent US8048918B2, “Treatment of hyperproliferative diseases” (Vampex Limited, priority 2000, dated 2011)
Where no end group is shown, it is not given here.

Key:
[1] = target: T1, RalDHII (Rattus norvegicus, UniProt Q63639); details: Penzes et al. 1997; Chen and Juchau 1997; cited from earlier work
T1 sequence (Q63639 1-518): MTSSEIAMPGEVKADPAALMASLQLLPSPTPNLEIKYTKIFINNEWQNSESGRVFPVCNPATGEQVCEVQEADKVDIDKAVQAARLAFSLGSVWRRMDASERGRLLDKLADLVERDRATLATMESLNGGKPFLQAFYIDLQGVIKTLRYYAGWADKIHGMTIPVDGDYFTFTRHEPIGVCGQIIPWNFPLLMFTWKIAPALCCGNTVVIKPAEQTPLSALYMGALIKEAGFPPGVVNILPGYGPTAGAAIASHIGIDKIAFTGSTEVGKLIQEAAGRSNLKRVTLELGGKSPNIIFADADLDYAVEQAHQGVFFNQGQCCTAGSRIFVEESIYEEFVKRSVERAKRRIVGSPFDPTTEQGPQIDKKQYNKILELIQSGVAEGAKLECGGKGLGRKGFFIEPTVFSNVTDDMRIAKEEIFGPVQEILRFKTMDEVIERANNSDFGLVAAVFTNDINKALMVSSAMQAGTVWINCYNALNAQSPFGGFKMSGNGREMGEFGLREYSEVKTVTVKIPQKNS

[2] = target: retinol dehydrogenase; details: Boerman and Napoli, Biochemistry 34:7027-37, 1995; cited from earlier work
[3] = system: COS-7 cells; test: proliferation assay of COS-7 cells (Coulter counter); assay type: cell-based; details: P142 1 mg/ml, peptides 6 μM; 24 and 48 hours after treatment; FIG. 8
Protocol: (§1) […] (COS1 and COS7) are purchased from the European Cell Culture Collection, thawed and propagated according to the instructions from the supplier; cells are cultured essentially in the same manner as for normal human keratinocytes (Example 3 above), except that cells are seeded at 20 000 cells/cm^2, with only one treatment with antibody P142, control immunoglobulin, peptide 589, peptide 592 or control peptide 24 hrs after seeding.
(§2) Proliferation is assayed by counting cells in a Coulter counter, as described above.

[4] = system: hyperproliferative psoriatic keratinocytes; test: differentiation assay (K1/K10 mRNA, Northern blot / RT-PCR) on hyperproliferative psoriatic keratinocytes; assay type: cell-based, human; details: peptides 6 μM, Ca2+ 1.2 mM, RBP 0.6 μM
Protocol: RNA extraction is carried out according to the manufacturers instructions using the RNeasy kit (QIAGEN). 20 μg of RNA for each treatment was separated on a 1.2% agarose (1.8% formaldehyde) gel and transferred onto a nylon membrane (Zeta probe GT membranes, BioRad) by capillary transfer. The RNA is fixed to the membrane by UV crosslinking. DNA probes for the differentiation markers K1 and K10(50 ng) are labelled with [α-^32P] dCTP using the Prime-It RmT Primer labeling kit (Stratagene) following the manufacturer's instructions. Unincorporated nucleotides are removed by elution through a Microspin G25 column (Pharmacia Biotech). The blots are wetted in 0.25M sodium phosphate (pH 7.2)/7% SDS for 30 minutes at 65° C. Fresh hybridisation solution is added along with the radiolabelled probe and the blot is hybridised overnight at 65° C.
The blot is washed for 2×5 minutes in 0.25M sodium phosphate (pH 7.2), 7% SDS and then for 2×5 minutes in 20 mM sodium phosphate (pH 7.2), 5% SDS at 65° C. The wash steps are repeated until a clear distinction can be made between the signal and non-specific background. The blot is exposed to x-ray film for 24 hours before developing.
Synthesis of mRNA for the K1 and K10 keratin (markers for commitment to terminal differentiation) is examined by quantitative reverse transcription PCR (RT-PCR). Synthesis of mRNA for Cyclin D (a marker for cell proliferation) is also assayed by RT-PCR. Standard protocol for RT-PCR is followed as recommended by the manufacturer of the PCR machine (PE 2400) using 1 μg RNA from each keratinocyte culture. Suitable primers for RT-PCR are designed based on the human sequences of K1 and K10 deposited in GenBank. Northern blots are also performed: cells are harvested, RNA extracted and 20 μg RNA loaded into each well of a formaldehyde/agarose gel. The RNA is blotted onto a nylon membrane by capillary transfer and expression of K1 mRNA is determined by Northern hybridisation with a radiolabelled DNA probe.
Next, hyperproliferative epidermal keratinocytes are obtained, isolated and cultured as described above in Example 3. Hyperproliferative psoriatic keratinocytes are cultured as described above in serum-free medium with or without the addition of […] human retinol binding protein. At confluence the cells are treated (see Table 3 below) for 96 hours with peptides to 6 μM (medium replaced after 48 hours). Treatments shown in the Table 3 are for duplicate T-25 flasks (2×7 ml for each treatment).
The final concentrations are: Ca^2+ 1.2 mM, RBP 0.6 μM, peptides 6 μM.
Expression of K1 and K10 markers is determined as described above in Example 4. […]
Synthesis of mRNA for markers of proliferation and differentiation is also examined by semi-quantitative reverse transcription PCR (RT-PCR). […]

[5] = system: COS-1 cells; test: proliferation assay of COS-1 cells (Coulter counter); assay type: cell-based; details: P142 1 mg/ml, peptides 6 μM; 24 and 48 hours after treatment; FIG. 7
Protocol: as §1, §2

Compound: CC(C)=CCCC(C)=CC=O [Citral, 3,7-dimethyl-2,6-octadienal]
- IC50 [1]: 12 µM

Compound: CC1(C)[C@@H](OC(=O)CCC(=O)O)CC[C@]2(C)[C@H]3C(=O)C=C4[C@@H]5C[C@@](C)(C(=O)O)CC[C@]5(C)CC[C@@]4(C)[C@]3(C)CC[C@@H]12 [Carbenoxolone]
- IC50 [2]: 55 µM

Compound: GRVRLLNNWDVCA
- proliferation of Cos-7 cells (cell numbers) [3]: marked reduction in proliferation
- differentiation (expression of K1 and K10 markers) [4]: enhances the expression of K1 and K10 markers
- differentiation (expression of K1 and K10 markers) ([4]; listed as peptide 389): reversed
- proliferation of Cos-1 cells (cell numbers) [5]: marked reduction in proliferation
